Measurements: patent US20240409536A1, “COMPOUNDS AND METHODS FOR MODULATING SPLICING” (REMIX THERAPEUTICS INC., priority 2021, published 2024)

Columns and labels:
Type in all cases: cell-based, human
[1] = tested on: SMN2 mRNA; test: Gene panel canonical junction qPCR assay, SMN2 CJ mRNA decrease; conditions: Homo sapiens, canonical junction qPCR, read-out: SMN2 IC50 (decrease in CJ mRNA levels)
How it was run: (§1)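 A673 or K562 cells treated with compound; canonical exon-exon junction mRNA quantified by cDNA synthesis and RT-qPCR with junction-spanning primer/probe, normalized to GAPDH, GUSB or PPIA and DMSO (2^(−ΔΔCt)). Percent response from set ΔCt assay windows fitted to 4-parameter logistic; IC50 for CJ decrease.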

[2] = tested on: HiBiT-tagged HTT protein; test: HiBiT protein abundance assay, HTT (K562 HiBiT knock-in cells); conditions: 24 hours
How it was run: (§2)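 Luminescent readout of HiBiT-tagged endogenous protein after lysis, following 24 h compound exposure of knock-in K562 lines at 37 °C. Ten 3-fold concentrations from 10 μM final, DMSO ≤0.25%. Four-parameter logistic fit of normalized response gives concentration halving abundance (IC50).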

[3] = tested on: HiBiT-tagged MYB protein; test: HiBiT protein abundance assay, MYB (K562 HiBiT knock-in cells); conditions: 24 hours
How it was run: as §2

[4] = tested on: HTT mRNA; test: Gene panel canonical junction qPCR assay, HTT CJ mRNA decrease; conditions: Homo sapiens, canonical junction qPCR, read-out: HTT IC50 (decrease in CJ mRNA levels)
How it was run: as §1

IC50 [1] [nM] | IC50 [2] [nM] | IC50 [3] [nM] | IC50 [4] [nM] | Structure (SMILES)
< 100 | > 10000 | 1000 to 10000 | > 10000 | Cc1c(O)c(NC(=O)c2ccc(N3CCNCC3)c3ccnnc23)cc2cn(C)nc12 [Compound 181, N-(6-hydroxy-2,7-dimethylindazol-5-yl)-5-(piperazin-1-yl)cinnoline-8-carboxamide]
< 100 | 100 to 1000 | < 100 | 100 to 1000 | Cc1cn2cc(NC(=O)c3ccc(N4CCC5(CCN5)CC4)c4nccnc34)cc(F)c2n1 [Compound 189, 8-{1,7-diazaspiro[3.5]nonan-7-yl}-N-{8-fluoro-2-methylimidazo[1,2-a]pyridin-6-yl}quinoxaline-5-carboxamide]
< 100 | 100 to 1000 | < 100 | 100 to 1000 | COc1cnc2c(N3CCC(N(C)C)CC3)ccc(C(=O)Nc3cc(F)c4nc(C)cn4c3)c2n1 [Compound 206, 8-[4-(dimethylamino)piperidin-1-yl]-N-{8-fluoro-2-methylimidazo[1,2-a]pyridin-6-yl}-3-methoxyquinoxaline-5-carboxamide; trifluoroacetic acid]
< 100 | 1000 to 10000 | < 100 | 100 to 1000 | Cc1cn2cc(NC(=O)c3ccc(N4CCN5CCC[C@@H]5C4)c4ccnnc34)cc(F)c2n1 [Compound 153]
